Results: ChEMBL document CHEMBL5584309, “Discovery of Novel Mcl-1 Inhibitors with a 3-Substituted-1H-indole-1-yl Moiety Binding to the P1-P3 Pockets to Induce Apoptosis in Acute Myeloid Leukemia Cells” (J Med Chem, 2024)
The source made the active and inactive calls. The calls are words filed in the database; no cut-off is given here.

Key:
THP-1 [1] = assay: Antiproliferative activity against human THP-1 cells assessed as growth inhibition measured after 72 hrs by CCK-8 assay; format: functional, cell-based; settings: THP-1, 72 h
HL-60 [2] = assay: Induction of apoptosis in human HL-60 cells assessed as early apoptotic cells at 10 uM measured after 24 hrs by Annexin V-FITC/propidium iodide double staining based assay (reference value: 3.37%); format: functional
[3] = biological target: Apoptosis regulator Bcl-2 (Homo sapiens, UniProt P10415); assay: Binding affinity to Bcl-2 (unknown origin) pre-incubated for 30 mins followed by addition FAM-peptide further incubated for 20 mins by fluorescence polarization-based binding assay
HL-60 [4] = assay: Induction of apoptosis in human HL-60 cells assessed as early apoptotic cells at 5 uM measured after 24 hrs by Annexin V-FITC/propidium iodide double staining based assay (reference value: 3.37%); format: functional
[5] = Metabolic stability in rat plasma assessed as compound remaining measured after 120 mins by LC-MS/MS analysis; format: ADME, cell-free; settings: read-out: Stability
THP-1 [6] = assay: Induction of apoptosis in human THP-1 cells assessed as late apoptotic cells at 10 uM measured after 24 hrs by Annexin V-FITC/propidium iodide double staining based assay (reference value: 2.81%); format: functional
[7] = Metabolic stability in rat liver microsomes assessed as compound remaining measured after 30 mins by LC-MS/MS analysis; format: ADME, Microsome; settings: read-out: Stability
THP-1 [8] = assay: Induction of apoptosis in human THP-1 cells assessed as necrotic cells at 5 uM measured after 24 hrs by Annexin V-FITC/propidium iodide double staining based assay (reference value: 0.13%); format: functional
[9] = Metabolic stability in rat liver microsomes assessed as intrinsic clearance by LC-MS/MS analysis; format: ADME, Microsome; settings: read-out: CLH
[10] = Metabolic stability in rat plasma assessed as compound remaining measured immediately after addition of compound by LC-MS/MS analysis; format: ADME, cell-free; settings: read-out: Stability
HL-60 [11] = assay: Induction of apoptosis in human HL-60 cells assessed as late apoptotic cells at 2.5 uM measured after 24 hrs by Annexin V-FITC/propidium iodide double staining based assay (reference value: 3.78%); format: functional
U-937 = assay: Antiproliferative activity against human U-937 cells assessed as growth inhibition measured after 72 hrs by CCK-8 assay; format: functional, cell-based; settings: U-937, 72 h
HL-60 [12] = assay: Induction of apoptosis in human HL-60 cells assessed as viable cells at 5 uM measured after 24 hrs by Annexin V-FITC/propidium iodide double staining based assay (reference value: 92.68%); format: functional; settings: read-out: Activity
[13] = Metabolic stability in rat liver microsomes assessed as compound remaining measured after 45 mins by LC-MS/MS analysis; format: ADME, Microsome; settings: read-out: Stability
[14] = Metabolic stability in rat liver microsomes assessed as compound remaining measured after 60 mins by LC-MS/MS analysis; format: ADME, Microsome; settings: read-out: Stability
THP-1 [15] = assay: Induction of apoptosis in human THP-1 cells assessed as late apoptotic cells at 20 uM measured after 24 hrs by Annexin V-FITC/propidium iodide double staining based assay (reference value: 2.81%); format: functional
HL-60 [16] = assay: Induction of apoptosis in human HL-60 cells assessed as necrotic cells at 5 uM measured after 24 hrs by Annexin V-FITC/propidium iodide double staining based assay (reference value: 0.18%); format: functional
THP-1 [17] = assay: Induction of apoptosis in human THP-1 cells assessed as viable cells at 10 uM measured after 24 hrs by Annexin V-FITC/propidium iodide double staining based assay (reference value: 93.02%); format: functional; settings: read-out: Activity
[18] = Metabolic stability in rat liver microsomes assessed as compound remaining measured after 15 mins by LC-MS/MS analysis; format: ADME, Microsome; settings: read-out: Stability
THP-1 [19] = assay: Induction of apoptosis in human THP-1 cells assessed as necrotic cells at 20 uM measured after 24 hrs by Annexin V-FITC/propidium iodide double staining based assay (reference value: 0.13%); format: functional
HL-60 [20] = assay: Induction of apoptosis in human HL-60 cells assessed as late apoptotic cells at 5 uM measured after 24 hrs by Annexin V-FITC/propidium iodide double staining based assay (reference value: 3.78%); format: functional
THP-1 [21] = assay: Induction of apoptosis in human THP-1 cells assessed as late apoptotic cells at 5 uM measured after 24 hrs by Annexin V-FITC/propidium iodide double staining based assay (reference value: 2.81%); format: functional
THP-1 [22] = assay: Induction of apoptosis in human THP-1 cells assessed as viable cells at 20 uM measured after 24 hrs by Annexin V-FITC/propidium iodide double staining based assay (reference value: 93.02%); format: functional; settings: read-out: Activity
HL-60 [23] = assay: Induction of apoptosis in human HL-60 cells assessed as early apoptotic cells at 2.5 uM measured after 24 hrs by Annexin V-FITC/propidium iodide double staining based assay (reference value: 3.37%); format: functional
THP-1 [24] = assay: Induction of apoptosis in human THP-1 cells assessed as cleaved PARP at 10 to 20 uM measured after 24 hrs by Western blot analysis; format: functional, cell-based; settings: dose 10-20 µM
HL-60 [25] = assay: Antiproliferative activity against human HL-60 cells assessed as growth inhibition measured after 72 hrs by CCK-8 assay; format: functional, cell-based; settings: HL-60, 72 h
Bcl-2-related protein A1 = biological target: T1, Bcl-2-related protein A1 (Homo sapiens, UniProt Q16548); assay: Binding affinity to Bfl-1 (unknown origin) pre-incubated for 30 mins followed by addition FAM-peptide further incubated for 20 mins by fluorescence polarization-based binding assay
T1 sequence (Q16548 whole entry): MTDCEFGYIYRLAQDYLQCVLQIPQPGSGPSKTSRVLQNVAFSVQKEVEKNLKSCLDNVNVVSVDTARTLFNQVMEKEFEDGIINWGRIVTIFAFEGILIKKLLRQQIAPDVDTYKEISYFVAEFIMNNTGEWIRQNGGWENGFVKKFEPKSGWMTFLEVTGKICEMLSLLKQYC

[26] = Metabolic stability in rat liver microsomes assessed as compound remaining measured after 5 mins by LC-MS/MS analysis; format: ADME, Microsome
HL-60 [27] = assay: Induction of apoptosis in human HL-60 cells assessed as viable cells at 10 uM measured after 24 hrs by Annexin V-FITC/propidium iodide double staining based assay (reference value: 92.68%); format: functional; settings: read-out: Activity
[28] = biological target: Induced myeloid leukemia cell differentiation protein Mcl-1 (Homo sapiens, UniProt Q07820); assay: Inhibition of Mcl-1 in human THP-1 cells assessed as dissociation of Bim from Mcl-1 at 20 uM measured after 24 hrs by Co-immunoprecipitation (Co-IP) assay; format: cell-based
[29] = Metabolic stability in rat plasma assessed as compound remaining measured after 30 mins by LC-MS/MS analysis; format: ADME, cell-free; settings: read-out: Stability
THP-1 [30] = assay: Induction of apoptosis in human THP-1 cells assessed as viable cells at 5 uM measured after 24 hrs by Annexin V-FITC/propidium iodide double staining based assay (reference value: 93.02%); format: functional; settings: read-out: Activity
THP-1 [31] = assay: Induction of apoptosis in human THP-1 cells assessed as early apoptotic cells at 10 uM measured after 24 hrs by Annexin V-FITC/propidium iodide double staining based assay (reference value: 4.04%); format: functional
HL-60 [32] = assay: Induction of apoptosis in human HL-60 cells assessed as late apoptotic cells at 10 uM measured after 24 hrs by Annexin V-FITC/propidium iodide double staining based assay (reference value: 3.78%); format: functional
HL-60 [33] = assay: Induction of apoptosis in human HL-60 cells assessed as necrotic cells at 10 uM measured after 24 hrs by Annexin V-FITC/propidium iodide double staining based assay (reference value: 0.18%); format: functional

Chain of Apoptosis regulator Bcl-2 (P10415 whole entry): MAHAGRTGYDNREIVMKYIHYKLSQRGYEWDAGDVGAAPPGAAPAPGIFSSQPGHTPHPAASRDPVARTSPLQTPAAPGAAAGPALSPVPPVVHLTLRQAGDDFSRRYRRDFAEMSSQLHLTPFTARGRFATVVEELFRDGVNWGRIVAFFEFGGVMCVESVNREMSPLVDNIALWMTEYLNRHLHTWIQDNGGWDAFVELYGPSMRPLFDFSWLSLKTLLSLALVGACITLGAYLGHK
Chain of Induced myeloid leukemia cell differentiation protein Mcl-1 (Q07820 whole entry): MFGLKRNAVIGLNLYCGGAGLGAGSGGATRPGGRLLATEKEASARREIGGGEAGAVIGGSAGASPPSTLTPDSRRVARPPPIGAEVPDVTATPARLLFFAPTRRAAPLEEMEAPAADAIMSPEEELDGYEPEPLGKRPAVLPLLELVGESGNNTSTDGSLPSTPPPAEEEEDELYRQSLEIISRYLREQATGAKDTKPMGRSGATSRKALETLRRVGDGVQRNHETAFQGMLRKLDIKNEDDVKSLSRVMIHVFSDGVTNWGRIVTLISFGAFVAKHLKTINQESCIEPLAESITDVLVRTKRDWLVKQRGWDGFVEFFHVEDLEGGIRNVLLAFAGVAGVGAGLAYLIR

**Q.** What does the source list for `Cc1cc(OCCCc2c(C(=O)O)n(CCN3CCOCC3)c3c(-c4ccccc4Cn4cc(CCN(CCN5CCOCC5)S(=O)(=O)c5ccc(F)cc5)c5ccccc54)cccc23)cc(C)c1Cl`?
**A.** IC50 (THP-1 [1]): 8.83 µM; Activity (HL-60 [2]): 12.51%; IC50 [3]: > 100 µM; Activity (HL-60 [4]): 4.06%; remaining at 2 h [5]: 82.1%; Activity (THP-1 [6]): 4.12%; remaining at 0.5 h [7]: 53%; Activity (THP-1 [8]): 0.15%; microsomal CLint [9]: 30.6 µL/min/mg; remaining at 0 min [10]: 100%; Activity (HL-60 [11]): 3.95%; IC50 (U-937): 8.33 µM; viability at 5 µM (HL-60 [12]): 81.9%; remaining at 0.75 h [13]: 46%; remaining at 1 h [14]: 34.1%; Activity (THP-1 [15]): 6.3%; Activity (HL-60 [16]): 0.57%; viability at 10 µM (THP-1 [17]): 91.2%; remaining at 0.25 h [18]: 67.4%; Activity (THP-1 [19]): 0.52%; Activity (HL-60 [20]): 13.47%; Activity (THP-1 [21]): 2.59%; viability at 20 µM (THP-1 [22]): 68.6%; Activity (HL-60 [23]): 3.06%; Activity (THP-1 [24]): Active; IC50 (HL-60 [25]): 5.2 µM; IC50 (Bcl-2-related protein A1): > 10 µM; Stability ([26]; microsomes, 5 min): 69.3%; viability at 10 µM (HL-60 [27]): 41.2%; Activity [28]: Active; remaining at 0.5 h [29]: 87.7%; viability at 5 µM (THP-1 [30]): 93.2%; Activity (THP-1 [31]): 4.14%; Activity (HL-60 [32]): 46.1%; Activity (HL-60 [33]): 0.2%

**Q.** What does the source list for `Cc1nn(C)c(COc2ccc(N3CCN(S(=O)(=O)N(C)C)CC3)cc2)c1-c1cccc2c(CCCOc3cccc4ccccc34)c(C(=O)O)n(CCN3CCOCC3)c12`?
**A.** IC50 (THP-1 [1]): 5.65 µM; Activity (HL-60 [2]): 11.84%; IC50 [3]: > 100 µM; Activity (HL-60 [4]): 1.28%; remaining at 2 h [5]: 114%; Activity (THP-1 [6]): 2.8%; remaining at 0.5 h [7]: 51.8%; Activity (THP-1 [8]): 0.15%; microsomal CLint [9]: 34.9 µL/min/mg; remaining at 0 min [10]: 100%; Activity (HL-60 [11]): 2.14%; IC50 (U-937): 4.71 µM; viability at 5 µM (HL-60 [12]): 92.6%; remaining at 0.75 h [13]: 43.7%; remaining at 1 h [14]: 31.6%; Activity (THP-1 [15]): 24.35%; Activity (HL-60 [16]): 1.28%; viability at 10 µM (THP-1 [17]): 92.9%; remaining at 0.25 h [18]: 67.6%; Activity (THP-1 [19]): 0.62%; Activity (HL-60 [20]): 4.82%; Activity (THP-1 [21]): 2.54%; viability at 20 µM (THP-1 [22]): 41.9%; Activity (HL-60 [23]): 0.97%; Activity (THP-1 [24]): Active; IC50 (HL-60 [25]): 5.53 µM; IC50 (Bcl-2-related protein A1): > 10 µM; remaining at 5 min ([26]; liver microsomes, read-out: Stability): 77.1%; viability at 10 µM (HL-60 [27]): 33%; Activity [28]: Active; remaining at 0.5 h [29]: 104%; viability at 5 µM (THP-1 [30]): 94%; Activity (THP-1 [31]): 4.2%; Activity (HL-60 [32]): 50.33%; Activity (HL-60 [33]): 4.86%
